In one series the target is BCL-XL (Homo sapiens, UniProt Q07817). The series can be described thus: BCL-XL binding IC50. From the text: In one aspect, the present invention provides novel peptidomimetic macrocycles that are useful in competitive binding assays to identify agents which bind to the natural ligand(s) of the proteins or peptides upon which the peptidomimetic macrocycles are modeled. For example, in the BH3/BCL-XL anti-apoptotic system labeled peptidomimetic macrocycles based on BH3 can be used in a BCL-XL binding assay along with small molecules that competitively bind to BCL-XL. Competitive binding studies allow for rapid in vitro evaluation and determination of drug candidates specific for the BH3/BCL-XL system. The invention further provides for the generation of antibodies against the peptidomimetic macrocycles. In some embodiments, these antibodies specifically bind both the peptidomimetic macrocycle and the BH3 peptidomimetic precursors upon which the peptidomimetic macrocycles are derived. Such antibodies, for example, disrupt the BH3/BCL-XL systems, respectively.
BCL-XL, sequence (Q07817 whole entry): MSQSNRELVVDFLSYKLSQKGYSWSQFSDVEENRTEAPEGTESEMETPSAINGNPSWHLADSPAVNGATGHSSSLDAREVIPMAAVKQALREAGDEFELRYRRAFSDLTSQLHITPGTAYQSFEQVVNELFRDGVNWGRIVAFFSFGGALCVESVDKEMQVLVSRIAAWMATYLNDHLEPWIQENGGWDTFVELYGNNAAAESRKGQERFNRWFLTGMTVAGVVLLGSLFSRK

A further series deals with Raji Cell. The note with it: read-out: Raji Cell Viability EC50; 5% serum, 48 hr. On the procedure: The efficacy of certain peptidomimetic macrocycles is determined, for example, in cell-based killing assays using a variety of tumorigenic and non-tumorigenic cell lines and primary cells derived from human or mouse cell populations. […] Several standard assays that measure cell viability are commercially available and are optionally used to assess the efficacy of the peptidomimetic macrocycles. In addition, assays that measure Annexin V and caspase activation are optionally used to assess whether the peptidomimetic macrocycles kill cells by activating the apoptotic machinery. For example, the Cell Titer-glo assay is used which determines cell viability as a function of intracellular ATP concentration.

Series [1] has as its system Influenza A Virus H1N1 California/07/2009. The settings on record: Virus California/07/2009.
A further series has as its target MCL-1 (Homo sapiens, UniProt Q07820). The series can be described thus: biochemical. From the text: To assess the binding and affinity of compounds that antagonize the interaction between a peptide and an acceptor protein, a fluorescence polarization assay (FPA) utilizing a fluoresceinated peptidomimetic macrocycle derived from a peptidomimetic precursor sequence is used, for example. The FPA technique measures the molecular orientation and mobility using polarized light and fluorescent tracer. […] A compound that antagonizes the interaction between the fluoresceinated peptidomimetic macrocycle and an acceptor protein will be detected in a competitive binding FPA experiment.
Antagonist binding activity is measured, for example, by fluorescence polarization on a luminescence spectrophotometer (e.g. Perkin-Elmer LS50B). Kd values can be determined by nonlinear regression analysis using, for example, Graphpad Prism software (GraphPad Software, Inc., San Diego, Calif.).

A further series deals with SJSA-1 cells. Kind of series: SJSA-1 sarcoma cell killing / cell viability. It counts as cell-based. The settings on record: 10% serum.
For a further series, the target named is MDM2 (Homo sapiens, UniProt Q00987). The series can be described thus: MDM2 binding IC50/Ki (in vitro displacement, fluorescence polarization). A general note: In fluorescence polarisation assays a small probe gives low polarisation when free and higher when bound to something large.
MDM2, sequence (Q00987 whole entry): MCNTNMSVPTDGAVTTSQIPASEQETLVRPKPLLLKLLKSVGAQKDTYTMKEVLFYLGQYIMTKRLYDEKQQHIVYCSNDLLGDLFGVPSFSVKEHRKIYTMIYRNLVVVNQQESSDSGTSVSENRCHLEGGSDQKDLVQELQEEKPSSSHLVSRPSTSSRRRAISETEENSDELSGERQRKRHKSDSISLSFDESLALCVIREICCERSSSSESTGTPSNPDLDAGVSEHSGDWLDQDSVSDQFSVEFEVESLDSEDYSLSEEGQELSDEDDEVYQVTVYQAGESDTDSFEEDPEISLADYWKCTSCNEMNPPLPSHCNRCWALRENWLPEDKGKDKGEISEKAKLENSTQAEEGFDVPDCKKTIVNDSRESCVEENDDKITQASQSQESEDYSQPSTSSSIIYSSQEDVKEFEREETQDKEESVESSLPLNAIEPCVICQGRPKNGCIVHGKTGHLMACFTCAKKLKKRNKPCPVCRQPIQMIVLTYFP
A short description of series [2]: Aqueous solubility (turbidity of solution). It counts as physicochemical. The protocol:
In some embodiments, the peptidomimetic macrocycle or pharmaceutically acceptable salt thereof is not precipitated in the formulation. In some embodiments, an aqueous solubility of the peptidomimetic macrocycle is determined by evaluating the turbidity of a solution comprising the peptidomimetic macrocycle. In some embodiments, the peptidomimetic macrocycle or pharmaceutically acceptable salt thereof has an amphipathicity that falls in a range that is optimal for cell permeability.
In some embodiments, a peptidomimetic macrocycle with enhanced cell penetrability can be prepared based on solubility of the polypeptide, for example if the prepared peptidomimetic macrocycle is determined to be soluble based on visual examination of the turbidity of a solution of the polypeptide.

Molecules are shown by their SMILES. In brackets after ≈: the same amount, converted by molar mass. Read-outs that look alike come from different tables or passages of the source. Bridge positions count the residues as written; N and C are the ends. Square brackets hold non-standard residues; d marks the D form. Peptide text beside a SMILES is read from it. dPhe(4-CF3) = N[C@H](Cc1ccc(C(F)(F)F)cc1)C(=O)O; Phe(4-F) = N[C@@H](Cc1ccc(F)cc1)C(=O)O; R8 = C=CCCCCCC[C@@](C)(N)C(=O)O; S8 = C=CCCCCCC[C@](C)(N)C(=O)O; R5 = C=CCCC[C@@](C)(N)C(=O)O; hLeu = CC(C)CC[C@H](N)C(=O)O; S5 = C=CCCC[C@](C)(N)C(=O)O; Nle = CCCC[C@H](N)C(=O)O; Aib = CC(C)(N)C(=O)O

MCL-1, sequence (Q07820 whole entry): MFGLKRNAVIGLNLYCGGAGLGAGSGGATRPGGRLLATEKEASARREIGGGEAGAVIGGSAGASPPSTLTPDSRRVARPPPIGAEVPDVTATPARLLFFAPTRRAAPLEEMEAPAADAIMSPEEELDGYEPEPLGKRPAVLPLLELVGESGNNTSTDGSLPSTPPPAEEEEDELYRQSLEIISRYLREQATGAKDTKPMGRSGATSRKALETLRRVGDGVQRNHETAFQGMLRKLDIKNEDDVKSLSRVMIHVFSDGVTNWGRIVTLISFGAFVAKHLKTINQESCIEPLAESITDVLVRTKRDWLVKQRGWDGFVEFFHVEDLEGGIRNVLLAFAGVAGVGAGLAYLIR

For `CC[C@H](C)[C@H](NC(C)=O)C(=O)N[C@@H](Cc1c[nH]c2ccccc12)C(=O)N[C@H](C(=O)N[C@@H](C)C(=O)N[C@@H](CCC(N)=O)C(=O)N[C@@H](CCC(=O)O)C(=O)N[C@@H](CC(C)C)C(=O)N[C@@H](CCCNC(=N)N)C(=O)N[C@]1(C)CCCCCCC=CCCC[C@@](C)(C(=O)N[C@@H](Cc2ccc(O)cc2)C(=O)N[C@@H](Cc2ccc(O)cc2)C(=O)N[C@@H](C)C(=O)N[C@@H](CCCNC(=N)N)C(=O)N[C@@H](CCCNC(=N)N)C(N)=O)NC(=O)[C@H](CC(N)=O)NC(=O)[C@H](Cc2ccccc2)NC(=O)[C@H](CCC(=O)O)NC(=O)[C@H](CC(=O)O)NC(=O)CNC(=O)[C@H]([C@@H](C)CC)NC1=O)[C@@H](C)CC` [SP810], the half-maximal inhibitory concentration (IC50) on BCL-XL amounted to 9.2 nM. Further, in the series on Raji Cell, the 50% effective concentration (EC50) was over 30000 nM. Turning to `CCCC[C@H](NC(C)=O)C(=O)N[C@@H](CC(=O)O)C(=O)N[C@H](C(=O)N[C@@H](CC(N)=O)C(=O)N[C@@]1(C)CCCC=CCCC[C@@](C)(C(=O)N[C@@H](CC(C)C)C(=O)N[C@@H](C)C(=O)N[C@H](C(=O)NC(C)(C)C(=O)N[C@@H](C)C(=O)N[C@@H](CCC(N)=O)C(N)=O)C(C)C)NC(=O)[C@H](CC(C)C)NC(=O)[C@H](CC(C)C)NC(=O)[C@H]([C@@H](C)O)NC1=O)C(C)C` [SP786] (Ac-[Nle]DVN[S5]TLL[S5]LAV[Aib]AQ-NH2; staple 5-9; C-terminus assumed), a half-maximal response in series [1] (EC50) required 23000 nM. For `CC[C@H](C)[C@H](NC(C)=O)C(=O)N[C@@H](Cc1c[nH]c2ccccc12)C(=O)N[C@H](C(=O)N[C@@H](C)C(=O)N[C@@H](CCC(N)=O)C(=O)N[C@@H](C)C(=O)N[C@@H](CC(C)C)C(=O)N[C@@H](CCCNC(=N)N)C(=O)N[C@]1(C)CCCCCCC=CCCC[C@@](C)(C(=O)N[C@@H](Cc2ccc(O)cc2)C(=O)N[C@@H](Cc2ccc(O)cc2)C(=O)N[C@@H](C)C(=O)N[C@@H](CCCNC(=N)N)C(=O)N[C@@H](CCCNC(=N)N)C(N)=O)NC(=O)[C@H](CC(N)=O)NC(=O)[C@H](Cc2ccccc2)NC(=O)[C@H](CCC(=O)O)NC(=O)[C@H](CC(=O)O)NC(=O)CNC(=O)[C@H]([C@@H](C)CC)NC1=O)[C@@H](C)CC` [SP809] (Ac-IWIAQALR[R8]IGDEFN[S5]YYARR-NH2; staple 9-16), the results for the IC50 on MCL-1 and on BCL-XL were 10.6 nM and 3.9 nM, respectively. In addition, in the series with Raji Cell, the EC50 was over 30000 nM. In series [1], `CCCC[C@H](NC(C)=O)C(=O)N[C@@H](CC(=O)O)C(=O)N[C@H](C(=O)N[C@@H](CC(N)=O)C(=O)N[C@]1(C)CCCCCCC=CCCC[C@@](C)(C(=O)N[C@@H](C)C(=O)N[C@@H](C)C(=O)N[C@@H](CCC(N)=O)C(N)=O)NC(=O)[C@H](C)NC(=O)[C@H](CC(C)C)NC(=O)[C@H](Cc2ccccc2)NC(=O)[C@H](CC(C)C)NC(=O)[C@H](CC(C)C)NC(=O)[C@H]([C@@H](C)O)NC1=O)C(C)C` [SP798] (Ac-[Nle]DVN[R8]TLLFLA[S5]AAQ-NH2; staple 5-12) displayed an EC50 of 4500 nM. In the case of `CC(=O)N[C@@H](C(=O)N[C@H](C)C(=O)N[C@H](Cc1c[nH]c2ccccc12)C(=O)N[C@H](Cc1ccc(O)cc1)C(=O)N[C@H](C)C(=O)N[C@H](CC(N)=O)C(=O)N[C@H](Cc1ccccc1)C(=O)N[C@H](CCC(=O)O)C(=O)N[C@H](CCCCN)C(=O)N[C@H](CC(C)C)C(=O)N[C@H](CC(C)C)C(=O)N[C@H](CCCNC(=N)N)C(N)=O)[C@H](C)O` [SP778, Ac-tawyanfekllr-NH2, reference compound] (Ac-[dT][dA][dW][dY][dA][dN][dF][dE][dK][dL][dL][dR]-NH2), the half-maximal effective concentration (EC50) with SJSA-1 cells (72 hr (Table 1f)) is over 30000 nM. With `CCCC[C@H](NC(=O)[C@H](C)NC(=O)[C@H](C)NC(=O)[C@]1(C)CCCC=CCCCCCC[C@@](C)(NC(=O)[C@H](Cc2ccccc2)NC(=O)[C@@H](NC(=O)[C@H](CC(C)C)NC(C)=O)[C@@H](C)O)C(=O)N[C@@H](C)C(=O)N[C@@H](Cc2ccc(O)cc2)C(=O)N[C@@H](Cc2c[nH]c3ccccc23)C(=O)N[C@@H](C)C(=O)N[C@@H](CCC(N)=O)C(=O)N[C@@H](CC(C)C)C(=O)N1)C(=O)N[C@@H](C)C(N)=O` [SP68], the IC50 at MDM2 came out at 29 nM. Moreover, the midpoint of the response in the series with SJSA-1 cells (72 hr (Table 1d)), the EC50, lay at 1120 nM. In addition, the solubility in series [2] (aqueous solution, read-out: Solubility) is 3000 µg/mL (≈ 1690 µM).

Compound `CC(=O)N[C@@H](CC(C)C)C(=O)N[C@H](C(=O)N[C@@H](Cc1ccccc1)C(=O)N[C@]1(C)CCCCCCC=CCCC[C@@](C)(C(=O)N[C@@H](C)C(N)=O)NC(=O)[C@H](CC(C)C)NC(=O)[C@H](CCC(N)=O)NC(=O)[C@H](C)NC(=O)[C@H](Cc2c[nH]c3ccccc23)NC(=O)[C@H](Cc2ccc(O)cc2)NC(=O)[C@H](C)NC1=O)[C@@H](C)O` [SP590, Ac-LTF$r8AYWAQL$A-NH2] (Ac-LTF[R8]AYWAQL[S5]A-NH2; staple 4-11) came in with an EC50 with SJSA-1 cells (72 hr (Table 1d)) of 6000 nM. The same compound displayed a solubility in series [2] of at most 1000 µg/mL.

For the compound `CC(=O)N[C@@H](CC(C)C)C(=O)N[C@H](C(=O)N[C@@H](Cc1ccccc1)C(=O)NC1(C)CCCCCCC=CCCCC(C)(C(=O)N[C@@H](C)C(=O)N[C@@H](C)C(=O)N[C@@H](C)C(=O)N[C@@H](C)C(=O)N[C@@H](C)C(=O)N[C@@H](C)C(=O)N[C@H](C)C(N)=O)NC(=O)[C@H](CC(C)C)NC(=O)[C@H](CCC(N)=O)NC(=O)[C@H](C)NC(=O)[C@H](Cc2c[nH]c3ccccc23)NC(=O)[C@H](Cc2ccc(O)cc2)NC(=O)[C@H](C)NC1=O)[C@@H](C)O` (stereo partly drawn) [SP317], the solubility in series [2] (read-out: Solubility) came to 5000 µg/mL (≈ 2570 µM).

For `CC[C@H](C)[C@H](NC(C)=O)C(=O)N[C@@H](Cc1c[nH]c2ccccc12)C(=O)N[C@H](C(=O)N[C@@H](C)C(=O)N[C@@H](CCC(N)=O)C(=O)N[C@@H](C)C(=O)N[C@@H](CC(C)C)C(=O)N[C@@H](CCCNC(=N)N)C(=O)N[C@]1(C)CCCCCCC=CCCC[C@@](C)(C(=O)N[C@@H](Cc2ccc(O)cc2)C(=O)N[C@@H](Cc2ccc(O)cc2)C(=O)N[C@@H](C)C(N)=O)NC(=O)[C@H](CC(N)=O)NC(=O)[C@H](Cc2ccccc2)NC(=O)[C@H](C)NC(=O)[C@H](CC(=O)O)NC(=O)CNC(=O)[C@H]([C@@H](C)CC)NC1=O)[C@@H](C)CC` [SP815] (Ac-IWIAQALR[R8]IGDAFN[S5]YYA-NH2; staple 9-16), the IC50 turned out to be 8.4 nM at MCL-1 and 22.4 nM on BCL-XL. Further, in the series on Raji Cell, the EC50 was 6600 nM. The like results for `CC[C@H](C)[C@H](NC(C)=O)C(=O)N[C@@H](Cc1c[nH]c2ccccc12)C(=O)N[C@H](C(=O)N[C@@H](C)C(=O)N[C@@H](CCC(N)=O)C(=O)N[C@@H](C)C(=O)N[C@@H](CC(C)C)C(=O)N[C@@H](CCCNC(=N)N)C(=O)N[C@]1(C)CCCCCCC=CCCC[C@@](C)(C(=O)N[C@@H](Cc2ccc(O)cc2)C(=O)N[C@@H](Cc2ccc(F)cc2)C(=O)N[C@@H](C)C(N)=O)NC(=O)[C@H](CC(N)=O)NC(=O)[C@H](Cc2ccccc2)NC(=O)[C@H](C)NC(=O)[C@H](CC(=O)O)NC(=O)CNC(=O)[C@H](CCC(C)C)NC1=O)[C@@H](C)CC` [SP962] (Ac-IWIAQALR[R8][hLeu]GDAFN[S5]Y[Phe(4-F)]A-NH2; staple 9-16) were, in that order, 27 nM, 13 nM and 700 nM. `CC(=O)N[C@@H](C(=O)N[C@H](C)C(=O)N[C@H](Cc1c[nH]c2ccccc12)C(=O)N[C@H](Cc1ccc(O)cc1)C(=O)N[C@@]1(C)CCCCCCC=CCCC[C@](C)(C(=O)N[C@H](C)C(N)=O)NC(=O)[C@@H](CC(C)C)NC(=O)[C@@H](CC(C)C)NC(=O)[C@@H](CCCCN)NC(=O)[C@@H](CCC(=O)O)NC(=O)[C@@H](Cc2ccc(C(F)(F)F)cc2)NC(=O)[C@@H](CC(N)=O)NC1=O)[C@H](C)O` [SP757, Ac-tawy$s8nf4CF3ekll$r5a-NH2] (Ac-[dT][dA][dW][dY][S8][dN][dPhe(4-CF3)][dE][dK][dL][dL][R5][dA]-NH2; staple 5-12) had an EC50 in the series with SJSA-1 cells (72 hr (Table 1f)) of 1500 nM.

One may read the IC50 as the concentration at which inhibition is half-maximal. Read a high IC50 as weaker potency in that assay. A word on the EC50: it is the midpoint of the concentration-response curve. What is called solubility is how much of the substance goes into solution per volume.

These data come from patent US10905739B2, “Peptidomimetic macrocycles and formulations thereof” (AILERON THERAPEUTICS, INC., priority 2014, dated 2021).
